Experimental data from patent US10689622B2, “Culture medium for proliferating stem cell, which contains sulfated compound” (AJINOMOTO CO., INC., priority 2012, dated 2020).

Assays:
bFGF [1] = molecular target: T1, bFGF (Homo sapiens, UniProt P09038); assay: Evaluation of bFGF stabilization in Essential 8 medium (ELISA); format: biochemical; settings: 37° C. for 7 days
T1 construct: purchased Lonza (via TAKARA BIO INC.) Ser. No. 00/190,632
Outline: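 Test compound in PBS diluted 10-fold into serum-free medium (Essential 8 or ReproFF2), held sealed at 37° C for 7 days; remaining bFGF quantified by ELISA against a standard curve. Controls: PBS without compound diluted into each medium, held 7 days at 37° C or 4° C.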

bFGF [2] = molecular target: T1, bFGF; assay: Evaluation of bFGF stabilization in Lonza serum-free medium (ELISA); format: biochemical; settings: for effectiveness ELISA: effectiveness in ELISA evaluation of mesenchymal stem cells (medium), 4° C. control ratio
Outline: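 Compound in PBS diluted 10-fold into serum-free medium and held sealed at 37 °C for 7 days (some sets 3 days). Remaining bFGF quantified by human bFGF sandwich ELISA against a standard curve. Controls were compound-free PBS-medium kept at 37 °C or 4 °C for the same period.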

[3] = test system: Human bone marrow-derived mesenchymal stem cells; assay: Mesenchymal stem cell proliferation system (cell number by DNA quantification); settings: for effectiveness cells: growth of mesenchymal stem cell, control ratio
[4] = Measurement of content level of sulfur in test compound (ICP); format: physicochemical; settings: ICPS-8100, evaluation samples containing 0.01 wt % test compound
Source text: (§1) The content level of sulfur in the sulfated saccharide is generally not less than 5 wt %, preferably not less than 10 wt %, more preferably not less than 15 wt %, and the upper limit is generally not more than 40 wt %, preferably not more than 35 wt %, more preferably not more than 30 wt %. […] Here, the content level of sulfur is a proportion in wt % of sulfur derived only from the sulfate group in sulfated saccharides, which can be measured by a method known in the field (e.g., rhodizonate method, elemental analysis or luminescent spectral analysis).
as §1, with “polymer” for “saccharide”, “wt” for “wt %, preferably not more than 35 wt %, more preferably not more than 30 wt”, “in” for “derived only from”, “the” for “the sulfate group in”, “polymer,” for “saccharides,”, “such as” for “(e.g.,”
The relationship between the content level of sulfur in a test compound (sulfur content) and the cell proliferation promoting effect was examined. The sulfur content was measured using ICPS-8100 manufactured by SHIMADZU CORPORATION and analyzed using ICPS-8000 series Ver1.03. As the reference standard of sulfur, the standard for ICP-MS manufactured by Accu Standard was used. Sulfur reference standard solutions (0, 1, 10, 30, 50 ppm) were prepared, and the sulfur content of the evaluation samples containing 0.01 wt % test compound was measured by an analytical curve method.

iPS cell 201B7 strain = assay: iPS cell proliferation system (cell number); format: cell-based, human; settings: matrigel, Essential-8 medium
Experimental: The cell proliferation effect of various test compounds was evaluated using artificial pluripotent stem cell (iPS cell). 201B7 strain purchased from iPS Academia Japan, Inc. was grown in a culture container coated with a basal lamina matrix (matrigel manufactured by Nippon Becton Dickinson Company, Ltd., or a fragment containing an active domain of laminin 511 purchased from OSAKA UNIVERSITY) (Becton, Dickinson and Company, Falcon culture petri dish or Falcon culture plate), contained in a feeder-free medium for human ES/iPS cell (ReproCELL Inc, ReproFF2).
In this medium were suspended iPS cells in colony state, and a 2.5- to 3.5-fold diluted amount of the original culture was plated on a 6-well culture plate coated with a basal lamina matrix (Nippon Becton Dickinson Company, Ltd., Falcon culture plate). […] After culturing for 6 to 12 days, the medium was removed, the cells were detached from the culture plate by a trypsin-EDTA (Sigma-Aldrich Ltd.) or TrypLE Select (Invitrogen) treatment and the cell number was measured. The cell number was measured by the method described in “Kaitei Saibou baiyou Nyuumon Note, page 77-83, 2010, YODOSHA CO., LTD.” which is incorporated herein by reference in its entirety.
When the cells were seeded in a dissociation state of the cells (single cell state), a test compound solution after filter sterilization was added to a medium containing Y-27632 (Nacalai Tesque) to a given concentration, and dispensed to a 6 well culture plate. Thereto were plated iPS cells suspended in a medium containing Y-27632 at 100,000 cells/well, and cultured for 6 to 8 days. On the next day of seeding, the medium was exchanged to a medium (without Y-27632) added with the test compound alone. When medium exchange was necessary, the medium was exchanged every 2 or 3 days. […] After culturing for 6 to 8 days, the cell number was measured by a method similar to that mentioned above.
When the evaluation was performed in Essential 8 medium (Invitrogen), which is a different feeder-free medium for iPS cell, iPS cells cultured in a medium obtained by adding human serum albumin (Sigma-Aldrich Co. LLC) to Essential 8 medium were used.

[5] = Lonza serum-free medium, 37° C. for 7 days, test compound 25 ng/ml
[6] = Lonza serum-free medium, 37° C. for 7 days, test compound 250 ng/ml
[7] = Lonza serum-free medium, 37° C. for 7 days, test compound 25 μg/ml
[8] = Lonza serum-free medium, 37° C. for 7 days, test compound 250 μg/ml

T1 sequence (P09038 143-288): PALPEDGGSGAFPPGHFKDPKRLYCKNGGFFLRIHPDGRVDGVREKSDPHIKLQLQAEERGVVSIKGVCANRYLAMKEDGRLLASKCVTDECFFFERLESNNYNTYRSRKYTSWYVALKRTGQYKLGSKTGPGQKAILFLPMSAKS

concentration showing a suppressive effect on a decrease in the bFGF concentration of the medium (bFGF [1])	effectiveness ELISA (bFGF [2])	sulfur content Found (inorganic analysis) [4]	Substance	bFGF concentration relative to that of 4° C. control (ELISA) (bFGF [1]; test compound 250 pg/ml)	bFGF concentration relative to that of 4° C. control (ELISA) (bFGF [1]; test compound 25 ng/ml)	bFGF concentration relative to that of 4° C. control (ELISA) (bFGF [1]; test compound 250 ng/ml)	bFGF concentration relative to that of 4° C. control (ELISA) (bFGF [1]; test compound 25 μg/ml)	bFGF concentration relative to that of 4° C. control (ELISA) (bFGF [1]; test compound 250 μg/ml)	bFGF concentration relative to that of 4° C. control (ELISA) (bFGF [2]; [5])	bFGF concentration relative to that of 4° C. control (ELISA) (bFGF [2]; [6])	bFGF concentration relative to that of 4° C. control (ELISA) (bFGF [2]; [7])	bFGF concentration relative to that of 4° C. control (ELISA) (bFGF [2]; [8])	effectiveness cells [3]	number of cells relative to control (iPS cell 201B7 strain; test compound 25 ng/ml)	number of cells relative to control (iPS cell 201B7 strain; test compound 250 ng/ml)	other results
not less than 2.5 μg/ml	+++ (+++ 70%<)	17 wt %	maltitol SO3Na	x (bFGF concentration was less than 10% relative to that of 4 °C control)	x (bFGF concentration was less than 10% relative to that of 4 °C control)	x (bFGF concentration was less than 10% relative to that of 4 °C control)	+ (bFGF concentration was not less than 30% and less than 50% relative to that of 4 °C control)	+ (bFGF concentration was not less than 30% and less than 50% relative to that of 4 °C control)	x (bFGF concentration was less than 10% relative to that of 4 °C control)	++ (bFGF concentration was not less than 50% and less than 70% relative to that of 4 °C control)	+++ (bFGF concentration was not less than 70% relative to that of 4 °C control)	++ (bFGF concentration was not less than 50% and less than 70% relative to that of 4 °C control)	⊚ (⊚ not less than 120%)			
not less than 250 ng/ml	+++ (+++ 70%<)	16 wt %	maltoheptaose SO3Na	x (bFGF concentration was less than 10% relative to that of 4 °C control)	x (bFGF concentration was less than 10% relative to that of 4 °C control)	+ (bFGF concentration was not less than 30% and less than 50% relative to that of 4 °C control)	+++ (bFGF concentration was not less than 70% relative to that of 4 °C control)	+++ (bFGF concentration was not less than 70% relative to that of 4 °C control)	+ (bFGF concentration was not less than 30% and less than 50% relative to that of 4 °C control)	x (bFGF concentration was less than 10% relative to that of 4 °C control)	+++ (bFGF concentration was not less than 70% relative to that of 4 °C control)	++ (bFGF concentration was not less than 50% and less than 70% relative to that of 4 °C control)	⊚ (⊚ not less than 120%)	⊚ (not less than 120%: ⊚)	— (100%-50%: —)	concentration showing a suppressive effect on a decrease in the bFGF concentration in the medium (bFGF [2]; Lonza serum-free medium, 37° C. for 3 days): not less than 25 ng/ml; bFGF concentration relative to that of 4° C. control (ELISA) (bFGF [2]; Lonza serum-free medium, 37° C. for 3 days, test compound 25 ng/ml): − (bFGF concentration was not less than 10% and less than 30% relative to that of 4 °C control); bFGF concentration relative to that of 4° C. control (ELISA) (bFGF [2]; Lonza serum-free medium, 37° C. for 3 days, test compound 250 ng/ml): ++ (bFGF concentration was not less than 50% and less than 70% relative to that of 4 °C control); bFGF concentration relative to that of 4° C. control (ELISA) (bFGF [2]; Lonza serum-free medium, 37° C. for 3 days, test compound 25 μg/ml): ++ (bFGF concentration was not less than 50% and less than 70% relative to that of 4 °C control); bFGF concentration relative to that of 4° C. control (ELISA) (bFGF [2]; Lonza serum-free medium, 37° C. for 3 days, test compound 250 μg/ml): ++ (bFGF concentration was not less than 50% and less than 70% relative to that of 4 °C control); concentration showing promoted cell proliferation as compared to the control ([3]; mesenchymal stem cells, Lonza serum-free medium): 250 ng/mL
not less than 250 ng/ml	+++ (+++ 70%<)	13 wt %	maltotriose SO3Na	x (bFGF concentration was less than 10% relative to that of 4 °C control)	x (bFGF concentration was less than 10% relative to that of 4 °C control)	− (bFGF concentration was not less than 10% and less than 30% relative to that of 4 °C control)	+++ (bFGF concentration was not less than 70% relative to that of 4 °C control)	+++ (bFGF concentration was not less than 70% relative to that of 4 °C control)	x (bFGF concentration was less than 10% relative to that of 4 °C control)	x (bFGF concentration was less than 10% relative to that of 4 °C control)	+ (bFGF concentration was not less than 30% and less than 50% relative to that of 4 °C control)	+++ (bFGF concentration was not less than 70% relative to that of 4 °C control)	⊚ (⊚ not less than 120%)	◯ (not less than 100%: ◯)	◯ (not less than 100%: ◯)	
not less than 2.5 μg/ml	++ (++ 50%<)	17 wt %	mannitol SO3Na	x (bFGF concentration was less than 10% relative to that of 4 °C control)	x (bFGF concentration was less than 10% relative to that of 4 °C control)	x (bFGF concentration was less than 10% relative to that of 4 °C control)	+++ (bFGF concentration was not less than 70% relative to that of 4 °C control)	+++ (bFGF concentration was not less than 70% relative to that of 4 °C control)	+ (bFGF concentration was not less than 30% and less than 50% relative to that of 4 °C control)	− (bFGF concentration was not less than 10% and less than 30% relative to that of 4 °C control)	+ (bFGF concentration was not less than 30% and less than 50% relative to that of 4 °C control)	++ (bFGF concentration was not less than 50% and less than 70% relative to that of 4 °C control)	◯ (◯ not leas than 100%)			
